“And” between values parts separate entries of the source, which are not always exact repeats. Equal values may be shown once.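 96-well plates; 48 h exposure; 5 concentrations. Endpoints by linear interpolation between flanking doses. Not reached: highest tested concentration assigned. The concentration for 50% growth inhibition is given as GI50. TGI marks complete inhibition of growth.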
Legend:
Test in all cases: NCI tumour cell line growth inhibition, 48 h
BT-549 breast = test system: BT-549 breast
NCI/ADR-RES ovarian = test system: NCI/ADR-RES ovarian
DMS 273 small cell lung = test system: DMS 273 small cell lung
KM20L2 colon = test system: KM20L2 colon
M19-MEL melanoma = test system: M19-MEL melanoma
SNB-78 CNS = test system: SNB-78 CNS
MDA-N = test system: MDA-N
XF 498 CNS = test system: XF 498 CNS
RXF-631 renal = test system: RXF-631 renal

| Compound | GI50 (BT-549 breast) | TGI (BT-549 breast) | GI50 (NCI/ADR-RES ovarian) | TGI (NCI/ADR-RES ovarian) | TGI (DMS 273 small cell lung) | TGI (KM20L2 colon) | TGI (M19-MEL melanoma) | TGI (SNB-78 CNS) | TGI (MDA-N) | TGI (XF 498 CNS) | TGI (RXF-631 renal) |
| --- | --- | --- | --- | --- | --- | --- | --- | --- | --- | --- | --- |
| COc1ccc(Nc2ccnc(NCCCNc3ccnc4cc(Cl)ccc34)n2)cc1 | 1.65 µM | 3.94 µM | 2.78 µM | 10.4 µM | – | – | – | – | – | – | – |
| O=C1C=CC2(C=C1)CCN=c1c(O)c3c(c(O)c12)=NC=N3 | 18.1 µM and > 100 µM | 32.4 µM and > 100 µM | 22.7 µM and > 100 µM | > 100 µM | – | – | – | – | – | – | – |
| CCN(CC)CCOc1cc2c(C(=O)OC)c(C)oc2cc1C(C)=O | 7.84 µM | 22.8 µM | 13.6 µM | 26.6 µM | – | – | – | – | – | – | – |
| CCOC(=O)/C=C1\Nc2ccccc2-n2nnnc21 | – | – | – | – | 93.5 µM | > 100 µM | > 100 µM | > 100 µM | – | – | – |
| CC1C(=O)N(C)C2(CO)C(=O)O[C@H](C)C12O (stereo not given in full) | – | – | – | – | – | – | > 100 µM | > 100 µM | – | – | – |
| O=C(Nc1ccc(Br)c(Cl)c1)c1cc(F)ccc1O | 0.525 µM | 2.7 µM | 1.04 µM | > 15.6 µM | – | – | – | – | – | – | – |
| CC/C(=C(\CC)c1ccc(OCCN(CC)CC)cc1)c1ccc(OCCN(CC)CC)cc1 | 4.55 µM | 13.9 µM | 4.89 µM | 17.9 µM | – | – | – | – | – | – | – |
| ON(CCc1ccccn1)Cc1ccccc1 | – | > 100 µM | – | > 100 µM | – | – | – | – | > 100 µM | – | – |
| CC[C@H](C)C(=O)O[C@H]1CCC=C2C=C[C@H](C)C(CCC3C[C@@H](O)CC(=O)O3)[C@H]21 (stereo not given in full) | 17.2 µM | > 100 µM | 2.3 µM | > 100 µM | – | – | – | – | – | – | – |
| CCC(=C(c1ccc(OCc2ccccc2)cc1)c1ccc(OCc2ccccc2)cc1)c1ccc(OC)cc1 | – | – | – | – | > 100 µM | > 100 µM | > 100 µM | > 100 µM | – | > 100 µM | – |
| CCCC(=O)NNc1[nH]c(-c2ccc(OC)cc2)cc1C(=O)OCC | 15.7 µM | 31 µM | 19.2 µM | 47.4 µM | – | – | – | – | – | – | – |
| O=C(O)CC1(C(=O)O)CCCCC1 | – | > 100 µM | – | > 100 µM | – | – | – | – | > 100 µM | – | – |
| CC(=O)Nc1ccc(/C=C/C(=O)c2sc(C(N)=S)nc2C)cc1 | – | – | – | – | > 100 µM | > 100 µM | > 100 µM | > 100 µM | – | – | – |
| CC(C)=CCC/C(C)=C/CC/C(=C/COP(=O)(OCc1ccc([N+](=O)[O-])o1)N(C)CCCCCl)C(C)(C)C (stereo not given) | – | – | 16.3 µM | 38.5 µM | – | – | – | – | – | – | – |
| Cc1ccc2sc3c(NCCCNCCO)nc4ccccc4c3c(=O)c2c1 | 1.54 µM | 3.02 µM | 1.78 µM | 3.51 µM | – | – | – | – | – | – | – |
| CNC1C(O)CC(OC2C/C=C(\C)C/C(C)=C/C=C/CCC(C)CNC(=O)/C=C/C=C/C2C)OC1C (stereo not given) | – | 2.58 µM | – | – | – | – | 1.68 µM | 3.43 µM | 0.367 µM | 3.76 µM | 0.401 µM |
| CCCCCCCCCCCC(=O)OCC1OC(n2cc(F)c(=O)[nH]c2=O)C(N)C(O)C1O (stereo not given) | – | – | – | – | > 100 µM | > 100 µM | > 100 µM | > 100 µM | – | – | – |
| O=C(/C=C\Sc1nccc(C(F)(F)F)n1)c1ccc(Br)cc1 | 44.6 µM | > 100 µM | 20.2 µM | 52.7 µM | – | – | – | – | – | – | – |

| Compound | GI50 (BT-549 breast) | TGI (BT-549 breast) | GI50 (NCI/ADR-RES ovarian) | TGI (NCI/ADR-RES ovarian) | TGI (DMS 273 small cell lung) | TGI (KM20L2 colon) | TGI (M19-MEL melanoma) | TGI (SNB-78 CNS) | TGI (MDA-N) | TGI (XF 498 CNS) | TGI (RXF-631 renal) |
| --- | --- | --- | --- | --- | --- | --- | --- | --- | --- | --- | --- |
| O=C(Cn1ccnc1[N+](=O)[O-])NCC(F)(F)C(F)(F)F | > 100 µM | > 100 µM | > 100 µM | > 100 µM | – | – | – | – | – | – | – |
| Nc1nc(N)c(-c2ccc(Cl)cc2)c(CCC(=O)Nc2cccc(C(F)(F)F)c2)n1 | – | – | – | – | > 100 µM | > 100 µM | – | > 100 µM | – | > 100 µM | > 100 µM |
| CCOC(=O)c1c(Cl)c2c(n1Cc1cc(OC)cc(OC)c1)-c1oncc1CCC2 | 19.6 µM | > 100 µM | 0.227 µM | > 61.6 µM | – | – | – | – | – | – | – |
| CN(C)CC1CCn2c(c(C3=C(c4cn(C)c5ccccc45)C(=O)NC3=O)c3ccccc32)C1 (stereo not given) | 5.3 µM | 12.2 µM | 5.17 µM | 16.6 µM | – | – | – | – | – | – | – |
| CN(CCC(=O)O)S(=O)(=O)c1ccccc1 | – | > 100 µM | – | > 100 µM | – | – | – | – | > 100 µM | – | – |
| CC(=O)OCC1OC(S[As](C)C)C(OC(C)=O)C1OC(C)=O (stereo not given) | 0.645 µM | 2.87 µM | 0.259 µM | 2.48 µM | – | – | – | – | – | – | – |
| CN1CCN(Cc2ccc(Nc3ncc(Cl)c(Nc4ccccc4S(=O)(=O)N(C)C)n3)cc2)CC1 | 0.137 µM | 0.374 µM | 0.0747 µM | 1.24 µM | – | – | – | – | – | – | – |
| CN=S(=O)(C[C@]1(O)CC2OC1C1OC(C)(C)OC21)c1ccccc1 (stereo not given in full) | – | – | – | – | > 100 µM | > 100 µM | > 100 µM | > 100 µM | – | > 100 µM | – |
| Cc1c(Cl)ccc2c1NC(=O)C2(O)C1Cc2ccccc2C1=O (stereo not given) | – | – | – | – | – | > 100 µM | > 100 µM | > 100 µM | – | – | – |
| COc1cccc2c1c1nc3cc(C)c(C)cc3nc1n2CCN(C)C | 2.36 µM | 10.2 µM | 1.22 µM | 13.3 µM | – | – | – | – | – | – | – |
| Cc1cc(C)nc(SC2=C(Nc3cccc(Cl)c3)C(=O)N(Cc3ccccc3)C2=O)n1 | > 170 µM | > 170 µM | > 170 µM | > 170 µM | – | – | – | – | – | – | – |
| COc1ccc(F)cc1C(=O)c1cnc(NC2CCN(S(C)(=O)=O)CC2)nc1N | 4.11 µM | 14.3 µM | 6.26 µM | > 25 µM | – | – | – | – | – | – | – |
| COc1ccc2c(c1)Cc1c-2c(NN)nc2ccccc12 | 50.4 µM | > 100 µM | 21 µM | > 100 µM | – | – | – | – | – | – | – |
| COc1cc(-c2c(C)c(C)nc(OC)c2C#N)cc(OC)c1OC | – | – | – | – | – | > 100 µM | > 100 µM | > 100 µM | – | – | – |
| Cc1ccc(S(=O)(=O)n2cc(C(=O)C(=O)Nc3ccncc3)c3ccccc32)cc1 | 3.62 µM | > 100 µM | 0.406 µM | > 34.1 µM | – | – | – | – | – | – | – |
| O=C(CC(=O)C(F)(F)F)c1csc2ccccc12 | – | – | – | – | > 100 µM | > 100 µM | > 100 µM | > 100 µM | – | – | – |
| Clc1ccc2nc(CCSCCc3nc4ccc(Cl)cc4[nH]3)[nH]c2c1 | – | – | – | – | 29 µM | – | 27.4 µM | – | – | 27.5 µM | 21.6 µM |
| O=C(NCC#CCO)C(F)(F)F | – | – | – | – | > 100 µM | – | – | > 100 µM | – | > 100 µM | > 100 µM |
